Results as given in the supplement of paper PMC12494721.
Structures can show the parent of a compound that is named as a salt.

Columns and labels:
[1] = test system: Clostridium sporogenes DSM 1664; assay: growth (OD595) fold change vs plate DMSO controls (fold change (ratio)); higher = more growth; conditions: incubation time: 27 h, anaerobic, 37 °C
[2] = test system: Clostridium sporogenes DSM 1664; assay: fold change of Tryptamine concentration vs plate DMSO controls (fold change (ratio)); higher = more amine produced; conditions: incubation time: 27 h, anaerobic, 37 °C

SMILES | growth ([1]; 0.6125 µM) | growth ([1]; 1.25 µM) | growth ([1]; 2.5 µM) | growth ([1]; 5 µM) | growth ([1]; 10 µM) | growth ([1]; 20 µM) | fold change of Tryptamine concentration ([2]; 0.6125 µM) | fold change of Tryptamine concentration ([2]; 1.25 µM) | fold change of Tryptamine concentration ([2]; 2.5 µM) | fold change of Tryptamine concentration ([2]; 5 µM) | fold change of Tryptamine concentration ([2]; 10 µM) | fold change of Tryptamine concentration ([2]; 20 µM)
O=C1NCCN1c1ncc([N+](=O)[O-])s1 [Niridazole] | 1.08 | 1.15 | 0.588 | 0.258 | -0.0146 | -0.0213 | 0.708 | 0.607 | 0.181 | 0.0568 | 0.0233 | 0.018
CC(=O)OCC1=C(C(=O)O)N2C(=O)[C@@H](NC(=O)Cc3cccs3)[C@H]2SC1 [Cephalothin sodium salt] | 0.841 | 0.629 | -0.0397 | -0.0266 | -0.0343 | -0.0372 | 0.905 | 0.0953 | 0.0223 | 0.0219 | 0.0236 | 0.0234
N[C@@H](C(=O)N[C@@H]1C(=O)N2C(C(=O)O)=C(Cl)CC[C@H]12)c1ccccc1 [Loracarbef] | 1.15 | 0.723 | -0.0147 | -0.0473 | -0.0388 | -0.0407 | 0.974 | 0.86 | 0.0468 | 0.0243 | 0.0223 | 0.0215
CC=CC1=C(C(=O)O)N2C(=O)[C@@H](NC(=O)[C@H](N)c3ccc(O)cc3)[C@H]2SC1 [Cefprozil] | 1.1 | 0.85 | 1.02 | 0.79 | 0.573 | 0.194 | 1 | 0.973 | 1 | 0.974 | 0.926 | 0.722
Oc1c(Cl)cc(Cl)c(Cl)c1Cc1c(O)c(Cl)cc(Cl)c1Cl [Hexachlorophene] | 1.05 | 0.819 | 0.779 | 0.711 | -0.0128 | -0.032 | 1.1 | 1.03 | 1.09 | 0.693 | 0.0218 | 0.0164
CC(=O)Oc1ccccc1C(=O)Nc1ncc([N+](=O)[O-])s1 [Nitazoxanide] | 1.24 | 1.23 | 1.29 | 0.809 | -0.0196 | -0.0243 | 1.01 | 0.989 | 0.993 | 0.314 | 0.0174 | 0.0175
CC(C)/N=c1\cc2n(-c3ccc(Cl)cc3)c3ccccc3nc-2cc1Nc1ccc(Cl)cc1 [Clofazimine] | 1.11 | 1.34 | 1.22 | 0.64 | 0.578 | -0.0109 | 0.975 | 0.893 | 0.681 | 0.365 | 0.379 | 0.0193
